Assay results: patent publication US10662214B2, “Compound of 4′-thionucleoside, as well as preparation method therefor, pharmaceutical composition thereof and application thereof” (Sichuan Kelun-Biotech Biopharmaceutical Co., Ltd., priority 2015, dated 2020)
pIC50: −log10 of the molar value.

Tests used:
[1] = test system: gastric cancer cell NCI-N87; assay: CCK-8 inhibition of proliferation, NCI-N87; assay type: cell-based, human; settings: for inhibitory effect on gastric cancer cell NCI-N87 (in words): FIG. 1: 5-10000 nM; for pIC50: Homo sapiens, NCI-N87, CCK-8, 72 h incubation
Procedure: (§1) The tumor cell lines employed in the present experiment were gastric cancer cell NCI-N87 (obtained from Guangzhou Jennio Biological Technology Co., Ltd.), colorectal cancer cell HCT-116 (obtained from Chengdu Center for Safety Evaluation of Drugs), colorectal cancer cell HCT-15 and pancreatic cancer cell BxPC-3 (both obtained from ATCC, US).
(§2) Each of the cell lines is cultured in a corresponding culture medium (RPMI-1640, IMDM and L-15 culture medium (manufacturer: Gibco)) supplemented with 10% heat inactivated Fetal Bovine Serum (manufacturer: Sigma), in an incubator at 37° C. and 5% CO2.
(§3) For each type of tumor cells, a blank group, a vehicle group (containing 1‰ DMSO) and 8 groups with a test compound at concentrations of 5 nM, 10 nM, 50 nM, 100 nM, 500 nM, 1000 nM, 5000 nM, and 10000 nM (with each concentration in triplicate) were set.
(§4) Appropriate amounts of test compounds were weighted, and dissolved in DMSO (cell culture grade, Sigma) to prepare stock solutions of various concentration gradients according to desired concentrations. During incubation, they were diluted by 1000 times as necessary, and incubation solutions with various drug concentrations were prepared (compound stock solution:medium containing 2% FBS=1:1000).
(§5) The experiment was performed according to a CCK-8 method as described below. Cancer cells to be tested were seeded in a 96-well culture plate at a concentration of 5˜10×10^4/mL (100 μL/well), followed by incubation at 37° C. and 5% CO2 for 24 h. The medium was discarded, and incubation solutions with different drug concentrations (200 μL) were respectively added to each well, and the cells were further incubated for 72 h. After the incubation, a CCK-8 solution (20 μL/well) was added to each well to be tested, and the incubation was continued for 4 h in the incubator. OD values at two wavelengths (Detection wavelength: 450 nm, and reference wavelength: 650 nm) were determined on a multifunctional fully-automatic microplate reader.
(§6) The inhibitory rate of tumor cell growth was calculated according to the following formula: Inhibitory rate=[(ODvehicle−ODblank)−(ODdrug−ODblank)]/(ODvehicle−ODblank)*100%
(§7) Based on the inhibitory rate, a concentration-inhibitory rate curve was fit using GraphPad prism 5.0 software, and IC50 was calculated.

[2] = test system: pancreatic cancer cell BxPC-3; assay: CCK-8 inhibition of proliferation, BxPC-3; assay type: cell-based, human; settings: for inhibitory effect on pancreatic cancer cell BxPC-3 (in words): FIG. 1: 5-10000 nM; for pIC50: Homo sapiens, BXPC-3, CCK-8, 72 h incubation
Procedure: as §1, §2, §3, §4, §5, §6, §7

[3] = test system: colorectal cancer cell HCT-15; assay: CCK-8 inhibition of proliferation, HCT-15; assay type: cell-based, human; settings: for inhibitory effect on colorectal cancer cell HCT-15 (in words): FIG. 1: 5-10000 nM; for pIC50: Homo sapiens, HCT-15, CCK-8, 72 h incubation
Procedure: as §1, §2, §3, §4, §5, §6, §7

[4] = Oral toxicity test in mice (administration for 7 days); assay type: in vivo; settings: once per day for 7 days
Procedure: Normal Male and female Kunming mice (SPF grade, obtained from Laboratory Animal Center in Sichuan Academy of Chinese Medicine Science) were randomized by weight into groups. The test compound and vehicle control were formulated according to Experimental example 2. The dosage volume was 10 mL/kg, and the administration was performed by oral gavage, once per day for 7 consecutive days.

[5] = Intravenous toxicity test in mice (administration for 7 days); assay type: in vivo; settings: mouse, in vivo, iv
Excerpt: This test was used to investigate the toxic reactions after intravenous administration of compound C8 to normal KM mice for 7 consecutive days.
KM mice passing the quarantine control were randomized into 4 groups (3 mice/gender/group). The test compound and vehicle control were formulated according to Experimental example 2. The mortality, appearance, behavior, mental status, secretion and excreta etc. of the animals were observed every day for 7 consecutive days after the administration, and the animals were anatomized on day 8.

CC(C)OC(=O)[C@H](C)N[P@](=O)(OC[C@H]1S[C@@H](n2ccc(N)nc2=O)[C@@H](F)[C@@H]1O)Oc1ccc2c(c1)OCO2 [Compound C14, (S)-isopropyl 2-(((S)-(((2R,3S,4S,5R)-5-(4-amino-2-oxopyrimidin-1(2H)-yl)-4-fluoro-3-hydroxytetrahydrothiophen-2-yl)methoxy)(benzo[d][1,3]dioxol-5-yloxy)phosphoryl)amino)propanoate]
inhibitory effect on gastric cancer cell NCI-N87 (in words) [1]: excellent inhibitory effects
pIC50 [1]: 6.74
inhibitory effect on pancreatic cancer cell BxPC-3 (in words) [2]: excellent inhibitory effects
pIC50 [2]: 5.55
inhibitory effect on colorectal cancer cell HCT-15 (in words) [3]: excellent inhibitory effects
pIC50 [3]: 5.01

C[C@H](NP(=O)(OC[C@H]1S[C@@H](n2ccc(N)nc2=O)[C@@H](F)[C@@H]1O)Oc1ccccc1)C(=O)OCc1ccccc1 (stereo partly drawn) [Compound C2, (S)-benzyl 2-(((((2R,3S,4S,5R)-5-(4-amino-2-oxopyrimidin-1(2H)-yl)-4-fluoro-3-hydroxytetrahydrothiophen-2-yl)methoxy)(phenoxy)phosphoryl)amino)propanoate]
inhibitory effect on gastric cancer cell NCI-N87 (in words) [1]: excellent inhibitory effects
pIC50 [1]: 6.60
inhibitory effect on pancreatic cancer cell BxPC-3 (in words) [2]: excellent inhibitory effects
pIC50 [2]: 5.89
inhibitory effect on colorectal cancer cell HCT-15 (in words) [3]: excellent inhibitory effects
pIC50 [3]: 5.53

CC(C)OC(=O)[C@H](C)NP(=O)(OC[C@H]1S[C@@H](n2ccc(N)nc2=O)[C@@H](F)[C@@H]1O)Oc1cccc2c1OCCO2 (stereo partly drawn) [Compound C16, (S)-isopropyl 2-(((((2R,3S,4S,5R)-5-(4-amino-2-oxopyrimidin-1(2H)-yl)-4-fluoro-3-hydroxytetrahydrothiophen-2-yl)methoxy)((2,3-dihydrobenzo[b][1,4]dioxin-5-yl)oxy)phosphoryl)amino)propanoate]
inhibitory effect on gastric cancer cell NCI-N87 (in words) [1]: excellent inhibitory effects
pIC50 [1]: 6.52
inhibitory effect on pancreatic cancer cell BxPC-3 (in words) [2]: excellent inhibitory effects
pIC50 [2]: 5.94

Nc1ccn([C@@H]2S[C@H](CO)[C@@H](O)[C@@H]2F)c(=O)n1 [Compound A, 1-((2R,3S,4S,5R)-3-fluoro-4-hydroxy-5-(hydroxymethyl)tetrahydrothiophen-2-yl)cytosine, reference compound]
dosage at which death of animals occurred ([4]; oral gavage): about 77 μmol/kg
Results: mortality (3 Male + 3 Female) ([4]; ~77 μmol/kg oral gavage): symptoms, and two
body weight decrease on day 8, female mice [5]: 20.2%
body weight decrease on day 8, male mice [5]: 18.1%
symptoms observed on day 8 ([5]; 20 mg/kg): a hunched stance and weight loss

C[C@H](NP(=O)(OC[C@H]1S[C@@H](n2ccc(N)nc2=O)[C@@H](F)[C@@H]1O)Oc1ccccc1)C(=O)OCc1ccc(F)cc1 (stereo partly drawn) [Compound C15, (2S)-4-fluorobenzyl 2-(((((2R,3S,4S,5R)-5-(4-amino-2-oxopyrimidin-1(2H)-yl)-4-fluoro-3-hydroxytetrahydrothiophen-2-yl)methoxy)(phenoxy)phosphoryl)amino)propanoate]
inhibitory effect on gastric cancer cell NCI-N87 (in words) [1]: excellent inhibitory effects
pIC50 [1]: 6.62
inhibitory effect on pancreatic cancer cell BxPC-3 (in words) [2]: excellent inhibitory effects
pIC50 [2]: 5.74
inhibitory effect on colorectal cancer cell HCT-15 (in words) [3]: excellent inhibitory effects
pIC50 [3]: 5.39

CC(C)OC(=O)[C@H](C)NP(=O)(OC[C@H]1S[C@@H](n2ccc(N)nc2=O)[C@@H](F)[C@@H]1O)Oc1ccc2c(c1)OCC2 (stereo partly drawn) [Compound C18, (S)-isopropyl 2-(((((2R,3S,4S,5R)-5-(4-amino-2-oxopyrimidin-1(2H)-yl)-4-fluoro-3-hydroxytetrahydrothiophen-2-yl)methoxy)((2,3-dihydrobenzofuran-6-yl)oxy)phosphoryl)amino)propanoate]
inhibitory effect on pancreatic cancer cell BxPC-3 (in words) [2]: excellent inhibitory effect
pIC50 [2]: 5.56

CC(C)OC(=O)[C@H](C)N[P@@](=O)(OC[C@H]1S[C@@H](n2ccc(N)nc2=O)[C@@H](F)[C@@H]1O)Oc1ccc2c(c1)OCO2 [Compound C13, (S)-isopropyl 2-(((R)-(((2R,3S,4S,5R)-5-(4-amino-2-oxopyrimidin-1 (2H)-yl)-4-fluoro-3-hydroxytetrahydrothiophen-2-yl)methoxy)(benzo[d][1,3]dioxol-5-yloxy)phosphoryl)amino)propanoate]
inhibitory effect on gastric cancer cell NCI-N87 (in words) [1]: excellent inhibitory effect
pIC50 [1]: 6.26

CC(C)OC(=O)[C@H](C)NP(=O)(OC[C@H]1S[C@@H](n2ccc(N)nc2=O)[C@@H](F)[C@@H]1O)Oc1ccc(F)c2c1CCO2 (stereo partly drawn) [Compound C17, (S)-isopropyl 2-(((((2R,3S,4S,5R)-5-(4-amino-2-oxopyrimidin-1(2H)-yl)-4-fluoro-3-hydroxytetrahydrothiophen-2-yl)methoxy)((7-fluoro-2,3-dihydrobenzofuran-4-yl)oxy)phosphoryl)amino)propanoate]
inhibitory effect on gastric cancer cell NCI-N87 (in words) [1]: excellent inhibitory effects
pIC50 [1]: 6.20
inhibitory effect on pancreatic cancer cell BxPC-3 (in words) [2]: excellent inhibitory effects
pIC50 [2]: 5.42

CC(C)OC(=O)[C@H](C)NP(=O)(OC[C@H]1S[C@@H](n2ccc(N)nc2=O)[C@@H](F)[C@@H]1O)Oc1ccc2ccoc2c1 (stereo partly drawn) [Compound C19, (S)-isopropyl 2-(((((2R,3S,4S,5R)-5-(4-amino-2-oxopyrimidin-1(2H)-yl)-4-fluoro-3-hydroxytetrahydrothiophen-2-yl)methoxy)(benzofuran-6-yloxy)phosphoryl)amino)propanoate]
inhibitory effect on gastric cancer cell NCI-N87 (in words) [1]: excellent inhibitory effects
pIC50 [1]: 6.46
inhibitory effect on pancreatic cancer cell BxPC-3 (in words) [2]: excellent inhibitory effects
pIC50 [2]: 6.17
